Source: patent publication US20180256570A1, “TOPICAL FORMULATIONS” (IGNYTA, INC., priority 2015, published 2018)

Legend:
[1] = Stress testing with pure excipients (adduct formation); assay type: physicochemical
Procedure: Stress testing with pure excipients was also conducted.

[2] = Solubility in common topical excipients and solvent mixtures; assay type: physicochemical
[3] = Solubility in IPA/DMSO and IPA/water/DMSO solutions; assay type: physicochemical
[4] = Human cadaver skin permeability assay, Franz diffusion cells (flux, Papp)
Procedure: Static, vertical glass Franz diffusion cells were used for the permeability assay.
The dosing solution with control compounds (atenolol and testosterone, 100 μM each) was prepared in PBS buffer at pH 7.4 immediately prior to the start of the permeability experiments. The skin was kept frozen at −80° C. until the time of the study. The skin was thawed at room temperature and cut to appropriate size (˜2×2 cm). The thickness of each piece was measured and they were grouped based on thickness to ensure that the average thickness was similar across groups. Tissue was mounted in the Franz cell diffusion chamber and clamped between the donor and receiver chambers. The exposed surface area of the Franz cell diffusion chamber was 1.77 cm^2. The receiver compartment was filled with 8 mL PBS at pH 7.4 with 1% Oleth 20 for all test groups, or PBS at pH 7.4 for the control group. The reservoir also contained a magnetic stir bar, stirring at 400 RPM to ensure homogeneity of the reservoir contents. […]
Each formulated test compound (35.4 μL by volume) was dispensed into the donor chamber using the reverse pipetting technique, after warming the cream in a water bath at 37° C. […] Each formulation was also analyzed to verify the concentration of the test compound. […]

[5] = Accumulation in epidermis and dermis of human skin after permeability assay; assay type: in vitro ADME
Source text: All chambers were covered to minimize evaporation.
The concentration of the test compounds is expressed as the amount (μg) normalized by the tissue weight of each layer (g).

CN(C(=O)c1ccc(F)cc1C(F)(F)F)C1CCN(c2nnc(-c3ccnn3C)c3ccccc23)CC1 [4-fluoro-N-methyl-N-(1-(4-(1-methyl-1H-pyrazol-5-yl)phthalazin-1-yl)piperidin-4-yl)-2-(trifluoromethyl)benzamide]
adduct formation ([1]; excipients containing unhindered hydroxyl groups (ethanol, benzyl alcohol, Transcutol)): Adducts were observed | adduct formation ([1]; isopropyl alcohol): no adduct was observed | Solubility in cosolvent, aqueous and lipophilic mixtures ([2]; Table 2 (not given)): solubility is highest in ethanol/water mixtures | Solubility ([2]; solvent DMSO): 27.65 mg/g | Solubility ([2]; solvent EtOH): 13.66 mg/g | Solubility ([2]; solvent EtOH-Water (1:1) v/v): 2.51 mg/g | Solubility ([2]; solvent EtOH-Water (3:1) v/v): 18.76 mg/g | Solubility ([2]; solvent IPA-Water (3:1) v/v): 18.73 mg/g | Solubility ([2]; solvent Isopropyl alcohol): 5.15 mg/g | Solubility ([2]; solvent NMP): 107.02 mg/g | solubility in IPA/DMSO solutions ([3]; above 20% DMSO, increasing DMSO, absence of water): increased | solubility in IPA/water/DMSO solutions ([3]; as percentage of water increased (5%, 10%, 20% or 30% water)): less solubility

Cc1c(C(=O)Nc2ccc(N3C[C@@H](C)O[C@@H](C)C3)nc2)cccc1-c1ccc(OC(F)(F)F)cc1 [LDE225]
flux, comparison between formulations ([4]; human cadaver skin): tended to be lower than that of Formulation A2 | accumulation in dermis, comparison [5]: significantly less | accumulation in epidermis, comparison [5]: significantly less

C[C@]12CC[C@H]3[C@@H](CCC4=CC(=O)CC[C@@]43C)[C@@H]1CC[C@@H]2O [testosterone]
ratio of testosterone to atenolol Papp ([4]; control compounds, 100 μM each in PBS pH 7.4): greater than 2
